Data from ChEMBL document CHEMBL1142990, “Self-organizing maps for identification of new inhibitors of P-glycoprotein” (J Med Chem, 2007).

biological target: ATP-dependent translocase ABCB1 (Homo sapiens, UniProt P08183); test: Inhibition of P-glycoprotein expressed in MDR CCRF vcr1000 cells by daunorubicin efflux assay
Sequence (P08183 whole entry): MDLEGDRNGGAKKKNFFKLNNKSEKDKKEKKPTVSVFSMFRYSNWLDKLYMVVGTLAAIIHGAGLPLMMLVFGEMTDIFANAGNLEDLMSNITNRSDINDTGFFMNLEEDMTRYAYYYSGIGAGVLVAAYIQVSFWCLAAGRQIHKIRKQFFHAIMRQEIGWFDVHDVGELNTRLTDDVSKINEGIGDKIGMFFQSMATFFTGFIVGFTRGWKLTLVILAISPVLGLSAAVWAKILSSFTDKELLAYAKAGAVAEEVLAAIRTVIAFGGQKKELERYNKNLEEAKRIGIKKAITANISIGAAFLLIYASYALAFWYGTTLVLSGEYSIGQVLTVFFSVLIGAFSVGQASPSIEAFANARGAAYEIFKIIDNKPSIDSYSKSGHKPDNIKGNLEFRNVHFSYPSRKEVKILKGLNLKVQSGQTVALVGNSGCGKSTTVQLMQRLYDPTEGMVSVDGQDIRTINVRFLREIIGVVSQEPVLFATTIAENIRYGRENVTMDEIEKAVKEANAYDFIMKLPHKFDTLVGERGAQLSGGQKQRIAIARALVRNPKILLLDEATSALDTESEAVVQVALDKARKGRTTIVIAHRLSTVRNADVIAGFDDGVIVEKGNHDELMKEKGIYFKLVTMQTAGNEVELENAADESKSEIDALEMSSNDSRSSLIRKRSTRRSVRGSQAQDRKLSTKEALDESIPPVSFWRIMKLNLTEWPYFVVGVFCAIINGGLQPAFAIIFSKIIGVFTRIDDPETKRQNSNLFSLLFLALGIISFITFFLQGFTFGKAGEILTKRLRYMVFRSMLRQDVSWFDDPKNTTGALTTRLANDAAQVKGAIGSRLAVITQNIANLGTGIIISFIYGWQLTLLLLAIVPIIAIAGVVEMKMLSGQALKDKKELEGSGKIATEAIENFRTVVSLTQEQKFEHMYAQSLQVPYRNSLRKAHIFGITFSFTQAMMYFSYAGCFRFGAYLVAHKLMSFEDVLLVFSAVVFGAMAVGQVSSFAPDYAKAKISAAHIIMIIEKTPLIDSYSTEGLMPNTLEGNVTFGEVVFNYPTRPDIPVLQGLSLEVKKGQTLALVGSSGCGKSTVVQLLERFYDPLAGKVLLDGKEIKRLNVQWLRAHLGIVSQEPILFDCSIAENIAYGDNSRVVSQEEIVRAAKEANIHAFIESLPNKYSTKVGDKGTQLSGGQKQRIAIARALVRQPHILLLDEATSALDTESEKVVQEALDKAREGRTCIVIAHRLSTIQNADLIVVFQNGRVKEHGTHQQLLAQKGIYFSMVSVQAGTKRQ

Row | SMILES | EC50 [nM]
1 | CC(=O)c1ccc(OCC(O)CN2CCN(c3ccc(F)cc3)CC2)cc1 (stereo not drawn) | 11900
2 | CC(=O)c1ccc(OCC(O)CN2CCOCC2)cc1 (stereo not drawn) | 302000
3 | O=C(CCc1cccc2ccccc12)c1ccccc1OCC(O)CN1CCC(O)(c2ccccc2)CC1 (stereo not drawn) | 75
4 | COC(=O)c1ccc(NCC(O)COc2ccccc2C(=O)CCc2ccccc2)cc1 (stereo not drawn) | 1540
5 | CC(=O)c1cccc(OCC(O)CN2CCN(c3ccc(F)cc3)CC2)c1 (stereo not drawn) | 10100
6 | O=C(CCc1ccccc1)c1ccccc1OCCCCN1CCN(c2ccc(F)cc2)CC1 | 192
7 | O=C(CCc1ccccc1)c1ccccc1OCC(O)CNc1ccc(C(F)(F)F)cc1 (stereo not drawn) | 8490
8 | CCCN(CC(O)COc1ccccc1C(=O)CCc1ccccc1)C(=O)c1ccccc1 (stereo not drawn) | 1690
9 | CCC(=O)N(Cc1ccccc1)CC(O)COc1ccccc1C(=O)CCc1ccccc1 (stereo not drawn) | 1650
10 | CC(=O)OC(COc1ccccc1C(=O)CCc1ccccc1)CN1CCCCC1 (stereo not drawn) | 336
11 | O=C(CCc1ccccc1)c1ccccc1OCC(O)CNc1ccc([N+](=O)[O-])cc1 (stereo not drawn) | 2570
12 | COc1ccc(CCC(=O)c2ccccc2OCC(O)CN2CCN(c3ccccc3C)CC2)cc1 (stereo not drawn) | 14
13 | CC(=O)c1cccc(OCC(O)CN2CCCCC2)c1 (stereo not drawn) | 9070
14 | CC(C)N(CC(O)COc1ccccc1C(=O)CCc1cccc2ccccc12)C(C)C (stereo not drawn) | 465
15 | CC(C)C(NCC(O)COc1ccccc1C(=O)CCc1ccccc1)c1ccccc1 (stereo not drawn) | 210
16 | O=C(CCc1ccccc1)c1ccccc1OCC(O)CN1CCN(C(=O)c2ccccc2)CC1 (stereo not drawn) | 130
17 | COc1ccc(OCC(O)CN2CCN(c3ccccc3C)CC2)c(C(=O)CCc2ccccc2)c1 (stereo not drawn) | 179
18 | O=C(CCc1ccccc1)c1ccccc1OCCCCN1CCOCC1 | 1010
19 | Cc1ccc(OCC(O)CN2CCN(c3ccccc3C)CC2)c(C(=O)CCc2ccccc2)c1 (stereo not drawn) | 26
20 | O=C(CCc1cccc2ccccc12)c1ccccc1OCC(O)CN1CCOCC1 (stereo not drawn) | 730
21 | Cc1ccccc1N1CCN(CC(O)COc2ccc(Cl)cc2C(=O)CCc2ccccc2)CC1 (stereo not drawn) | 59
22 | CCC(=O)c1ccccc1OCC(O)CN1CCC(O)(c2ccccc2)CC1 (stereo not drawn) | 299
23 | CCCNCC(O)COc1ccc(O)cc1C(=O)CCc1ccccc1 (stereo not drawn) [5-HYDROXY PROPAFENONE] | 3020
